One series concerns the target T1, mGAT3 (Mus musculus, UniProt P31649).
T1 construct: expressed in transfected cells; host or cells: HEK-293
T1 sequence (P31649 1-602): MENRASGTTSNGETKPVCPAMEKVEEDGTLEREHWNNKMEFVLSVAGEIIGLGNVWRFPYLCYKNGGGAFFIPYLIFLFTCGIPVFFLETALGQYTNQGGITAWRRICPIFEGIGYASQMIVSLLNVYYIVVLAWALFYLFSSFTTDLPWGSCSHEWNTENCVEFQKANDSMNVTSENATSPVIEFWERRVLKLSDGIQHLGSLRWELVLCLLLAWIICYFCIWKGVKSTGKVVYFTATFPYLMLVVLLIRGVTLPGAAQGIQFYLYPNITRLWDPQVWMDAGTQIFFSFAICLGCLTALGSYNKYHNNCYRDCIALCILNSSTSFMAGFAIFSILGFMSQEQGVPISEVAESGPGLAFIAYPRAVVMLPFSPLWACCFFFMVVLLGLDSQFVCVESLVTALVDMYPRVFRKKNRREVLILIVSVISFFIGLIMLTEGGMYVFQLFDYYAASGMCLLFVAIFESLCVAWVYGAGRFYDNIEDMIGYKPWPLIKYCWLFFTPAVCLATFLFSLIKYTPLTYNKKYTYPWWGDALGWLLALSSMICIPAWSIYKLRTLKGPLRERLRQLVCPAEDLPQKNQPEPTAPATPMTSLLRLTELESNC
The series can be described thus: [3H]GABA uptake assay in HEK-293 cells stably expressing mGAT3. The format is cell-based. As to conditions: [3H]GABA uptake; read-out: pIC50 ± SEM mGAT3 (converted).

The next series has as its target T2, mGAT2 (Mus musculus, UniProt P31651).
T2 construct: expressed in transfected cells; host or cells: HEK-293
T2 sequence (P31651 1-614): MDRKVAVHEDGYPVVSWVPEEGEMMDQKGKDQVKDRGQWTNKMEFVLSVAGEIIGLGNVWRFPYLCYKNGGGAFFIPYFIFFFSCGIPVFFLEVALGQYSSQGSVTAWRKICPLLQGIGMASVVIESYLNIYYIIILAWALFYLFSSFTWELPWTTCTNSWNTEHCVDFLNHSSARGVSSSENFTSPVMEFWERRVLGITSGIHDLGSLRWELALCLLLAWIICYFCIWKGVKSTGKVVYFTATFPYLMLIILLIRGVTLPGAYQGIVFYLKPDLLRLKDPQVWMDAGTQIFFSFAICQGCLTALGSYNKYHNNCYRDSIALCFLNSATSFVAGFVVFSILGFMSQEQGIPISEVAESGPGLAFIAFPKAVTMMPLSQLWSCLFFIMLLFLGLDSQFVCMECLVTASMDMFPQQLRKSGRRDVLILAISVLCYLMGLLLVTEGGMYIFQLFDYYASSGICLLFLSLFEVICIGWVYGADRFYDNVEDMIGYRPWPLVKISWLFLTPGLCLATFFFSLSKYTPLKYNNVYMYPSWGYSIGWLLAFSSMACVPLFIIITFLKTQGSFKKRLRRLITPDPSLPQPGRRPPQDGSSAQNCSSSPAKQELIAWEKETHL
The series can be described thus: [3H]GABA uptake assay in HEK-293 cells stably expressing mGAT2. The format is cell-based. As to conditions: [3H]GABA uptake; read-out: pIC50 ± SEM mGAT2 (converted).

The next series deals with HEK-293 cells. The series can be described thus: HEK-293 cytotoxicity assay (MTS). The format is cell-based, human. As to conditions: for concentration with significant (p < 0.0001) decrease in HEK-293 cell viability: 72 h of incubation; for concentration of observed antiproliferative effects: summary of HepG2 and HEK-293 assays. As to the method: Subsequently, a similar study was performed with the HEK-293 cell line.
Hepatotoxicity and cytotoxicity were estimated according to previously described protocols[62] using the hepatoma HepG2 (ATCC HB-8065) and human embryonic kidney HEK-293 (ATCC CRL1573) cell lines, respectively. In brief, cells were seeded in 96-well plates at a density of 0.7 × 10^4 and cultured at 37 °C in an atmosphere containing 5% CO2. Next, the compounds were added and investigated in quadruplicate at concentrations ranging from 0.1 to 100 μM for 72 h. The antiproliferative drug DX was used as the reference. The CellTiter 96 AQueous nonradioactive cell proliferation assay (MTS) purchased from Promega (Madison, WI, USA) was used for the determination of cell viability. The absorbance at 492 nm was measured using an EnSpire microplate reader (PerkinElmer, Waltham, MA, USA).

In another series the target is T3, mGAT1 (Mus musculus, UniProt P31648).
T3 construct: expressed in transfected cells; host or cells: HEK-293
The series can be described thus: [3H]GABA uptake assay in HEK-293 cells stably expressing mGAT1. The format is cell-based. The settings on record: for IC50: [3H]GABA uptake, read-out: pIC50 ± SEM mGAT1 (converted).

The next series deals with T4, mGAT4 (Mus musculus, UniProt P31650).
T4 construct: expressed in transfected cells; host or cells: HEK-293
T4 sequence (P31650 1-627): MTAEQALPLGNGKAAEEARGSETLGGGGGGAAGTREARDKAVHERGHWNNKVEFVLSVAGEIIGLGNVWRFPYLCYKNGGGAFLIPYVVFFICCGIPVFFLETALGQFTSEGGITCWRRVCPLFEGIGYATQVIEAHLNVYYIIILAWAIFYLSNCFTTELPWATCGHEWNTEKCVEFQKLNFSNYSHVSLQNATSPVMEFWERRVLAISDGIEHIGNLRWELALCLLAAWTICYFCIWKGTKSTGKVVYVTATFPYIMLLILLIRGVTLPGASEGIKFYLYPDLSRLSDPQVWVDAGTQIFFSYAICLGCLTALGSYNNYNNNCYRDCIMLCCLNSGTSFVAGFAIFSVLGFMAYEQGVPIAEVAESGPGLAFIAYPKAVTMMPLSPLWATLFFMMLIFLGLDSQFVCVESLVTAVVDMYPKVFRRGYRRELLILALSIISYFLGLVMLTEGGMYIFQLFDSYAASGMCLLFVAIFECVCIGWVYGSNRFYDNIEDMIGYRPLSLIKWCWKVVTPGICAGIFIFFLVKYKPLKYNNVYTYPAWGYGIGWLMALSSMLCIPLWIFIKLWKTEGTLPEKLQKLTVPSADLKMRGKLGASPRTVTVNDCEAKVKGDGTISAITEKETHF
In words: [3H]GABA uptake assay in HEK-293 cells stably expressing mGAT4. The settings on record: [3H]GABA uptake; read-out: pIC50 ± SEM mGAT4 (converted). The format is cell-based.

Take `Cc1ccc(CNC(=O)[C@@H](C[C@@H](C)O)N(C)CCC=C2c3ccccc3CCc3ccccc32)cc1` (relative stereo) [Compound 2RS,4RS-39c, 2-((3-(10,11-Dihydro-5H-dibenzo[a,d][7]annulen-5-ylidene)propyl)(methyl)amino)-4-hydroxy-N-(4-methylbenzyl)pentanamide]: the IC50 at mGAT3 was 6.61 µM; on mGAT2, 20.4 µM; at mGAT4, 4.37 µM. Besides, in the series with HEK-293 cells, the “concentration with significant (p < 0.0001) decrease in HEK-293 cell viability” value turned out to be 25 µM. Further, the “concentration of observed antiproliferative effects” value in the series on HEK-293 cells turned out to be 25 µM. Besides, the “remaining [3H]GABA uptake mGAT1” value on mGAT1 (in the presence of 100 μM inhibitor) is recorded as 100 μM: 52%.
With `CN(CCON=C(c1ccccc1)c1ccccc1)C(CCN)C(=O)NCc1ccccc1Cl` (stereo not drawn) [Compound 50a, 4-Amino-N-[(2-chlorophenyl)methyl]-2-[(2-{[(diphenylmethylidene)amino]oxy}ethyl)(methyl)amino]butanamide], the IC50 was 8.51 µM on mGAT3, 3.72 µM on mGAT2, 20 µM at mGAT1 and 20.4 µM at mGAT4. Further, the “safety profile in HEK-293 cells” value in the series with HEK-293 cells (72 h, compared with HepG2) is “comparable safety profile in HEK-293 and HepG2 cells”. In the series on HEK-293 cells, the “concentration of observed antiproliferative effects” value was 1 µM.
Turning to `CN(CCC=C1c2ccccc2CCc2ccccc21)C(CO)C(=O)NCc1ccccc1` (stereo not drawn) [Compound 56a, N-Benzyl-2-((3-(10,11-dihydro-5H-dibenzo[a,d][7]annulen-5-ylidene)propyl)(methyl)amino)-3-hydroxypropanamide], the IC50 on mGAT3 is 22.9 µM; at mGAT2 it was 27.5 µM; on mGAT1, 21.4 µM; at mGAT4 it was 9.12 µM. For the same compound, the “concentration with significant (p < 0.0001) decrease in HEK-293 cell viability” value with HEK-293 cells was determined as 25 µM. For the same compound, the “concentration of observed antiproliferative effects” value in the series with HEK-293 cells amounted to 25 µM.

For the origin of these results see paper PMC8397297 (ACS Chemical Neuroscience, 2021).
